Source: patent US20110009332A1, “Therapeutic Treatment Of Wounds” (SOUTHWEST RESEARCH INSTITUTE, priority 2009, published 2011)

Target: 20S proteasomes (Homo sapiens, UniProt P28074)
Assay: Inhibition of 20S proteasome enzyme activity
Format: biochemical
Conditions: 0 nM to 10,000 nM, FIGS. 7-9
Method: The IC50 may be understood as the amount of a particular substance/molecule needed to inhibit a given biological process in vitro by 50% and may be an indicator of the potency of a compound. The activity of the proteasome may be quantified by measuring the amount of fluorescence produced by cleavage of a fluorogenic substrate, such as LLVY-AMC, which when released by proteasomal cleavage, may emit fluorescent light.
The enzyme activity of 20S proteasomes was measured upon increasing addition of the proteasome inhibitors PS-1, curcumin and genestein in concentrations ranging from 0 nM to 10,000 nM. In particular, FIG. 7 illustrates the inhibition of 20S proteasomes upon the addition of PS-1. […] FIG. 8 illustrates the inhibition of the 20S proteasomes upon the addition of curcumin. […] FIG. 9 illustrates the inhibition of the 20S proteasomes upon the addition of genestein.

O=c1c(-c2ccc(O)cc2)coc2cc(O)cc(O)c12 [genestein]
enzyme activity of 20S proteasomes with increasing inhibitor concentration (in words): relatively smaller decrease in enzyme activity
